Reference: patent publication US12195804B2, “Treatment of squamous cell carcinoma” (Board of Regents, The University of Texas System, priority 2018, dated 2025)

How the values were obtained:
HNSCC cell lines = experiment: Apoptosis assays (Annexin V/propidium iodide, BrdU TUNEL, cleaved PARP/caspase 3); assay type: cell-based, human; settings: 50 nM
Protocol: FIGS. 7A-7D: PI3K/mTOR signaling inhibition induces cell death in NOTCH1^MUT but not NOTCH1^WT head and neck squamous cell carcinoma (HNSCC) cell lines in vitro. FIG. 7A. Annexin V/propidium iodide or BrDU-terminal deoxynucleotidyl transferase (TdT) dUTP nick-end labeling (TUNEL) assays were used to measure apoptosis in HNSCC cells with the indicated NOTCH1 and PIK3CA mutations, which were treated with 50 nM GSK2126458 (GSK212) for 24 or 48 hours, respectively. Values are the means±standard deviations of three independent experiments. *p<0.05, unpaired two-tailed Student t-test. FIG. 7B. Western blotting of cleaved PARP (Cl-PARP) and cleaved caspase 3 (Cl-Caspase 3) levels in mutant and wild type cells after GSK212 treatment for 48 hours. FIG. 7C. NOTCH1^MUT and NOTCH1^WT HNSCC cells were plated sparsely and treated with GSK212 at the indicated concentrations for 48 hours. At 14-21 days after treatment, the cells were fixed and stained, images were captured using the GelCount Tumour Colony Counter, and colony numbers and the colorimetric intensity of the colonies were determined by measuring the optical density (OD) at 570 nm. Values are the means±standard deviations of three independent experiments. *p<0.001, unpaired two-tailed Student t-test. FIG. 7D. Three NOTCH1^WT lines (black text and bars) and three NOTCH1^MUT lines (red text and bars) were treated with increasing concentrations of GSK212 for 4 hours, and levels of PI3K/mTOR pathway proteins were measured by Western blot analysis.
Western blot analysis. Western blot analysis was performed as described previously (Ferrarotto et al., 2016). In brief, cells were lysed with ice-cold lysis buffer, and the lysates were centrifuged at 20,000×g for 10 minutes at 4° C. Cell samples containing equal amounts of protein were resolved using sodium dodecyl sulfate-polyacrylamide gel electrophoresis, transferred to nitrocellulose membranes, and immunoblotted with different primary antibodies. Protein expression was detected using a horseradish peroxidase-conjugated secondary antibody (Bio-Rad, Hercules, CA) and electrochemiluminescence reagent (Amersham Biosciences, Pittsburg, PA).
Apoptosis and cell cycle assays. To measure apoptosis, we performed terminal deoxynucleotidyl transferase dUTP nick end labeling (TUNEL) staining with an APO-BRDU Kit (BD Biosciences, San Jose, CA) and Annexin V/propidium iodide staining with an FITC Annexin V Apoptosis Detection Kit (BD Pharmingen, San Diego, CA) as described previously (Chandarlapaty et al., 2011). […] Data were acquired with a three-laser, 10-color Gallios flow cytometer (Beckman Coulter, Brea, CA) and analyzed using Kaluza software (Beckman Coulter, Brea, CA). […]

UMSCC49 cells = experiment: CellTiter-Glo viability, UMSCC49 parental and NOTCH1 KO; assay type: cell-based, human; settings: 72 hours
Protocol: FIGS. 9A-9D: NOTCH1 knockout (KO) sensitizes two NOTCH1^WT head and neck squamous cell carcinoma (HNSCC) cell lines to PI3K/mTOR pathway inhibition in vitro. Two NOTCH1^WT HNSCC cell lines (PJ34 and UMSCC49 [UM49]), parental cell lines, and NOTCH1 KO cell lines were treated with PI3K/mTOR pathway inhibitors. FIG. 9A. The CellTiter-Glo assay was used to assess the viability of cells treated for 72 hours with the indicated concentrations of GSK2126458 (GSK212). FIG. 9B. Western blot analysis of apoptosis markers, NOTCH1, and NOTCH intracellular domain (NICD) was performed after treatment with the indicated concentrations of GSK212 for 48 hours. FIG. 9C. Apoptosis in cells treated with 50 nM GSK212 or 200 nM BEZ235 for 48 hours was measured using an Annexin V/propidium iodide assay. Values are the means±standard deviations of three independent experiments. *p<0.05, unpaired two-tailed Student t-test. FIG. 9D. […] Colony areas as percentages of the control were measured using ImageJ. […]
Cell viability assay. […] Inhibitory concentration (ICs) and area under the curve (AUC) values were calculated using the drexplorer R package with a best-fit dose-response model (Zumsteg et al., 2016). The combination indices were calculated using the Chou-Talalay method (Cal et al., 2017) in CalcuSyn (Biosoft, Cambridge, UK). […]

COc1ncc(-c2ccc3nccc(-c4ccnnc4)c3c2)cc1NS(=O)(=O)c1ccc(F)cc1F [GSK2126458]
apoptosis in PDK1-overexpressing versus parental lines (HNSCC cell lines; 24 or 48 hours, NOTCH1MUT cells overexpressing PDK1): decreased apoptosis | apoptosis (HNSCC cell lines; 24 or 48 hours, NOTCH1MUT lines): induced significant apoptosis | apoptosis (HNSCC cell lines; two NOTCH1WT/PIK3CAWT and three NOTCH1WT/PIK3CAMUT lines): no apoptosis was detected | IC70 (UMSCC49 cells; UMSCC49 NOTCH1 KO): 0.36 µM | IC70 (UMSCC49 cells; UMSCC49 parental): 1.48 µM
